The nature of series [1]: In vivo pharmacokinetic study of DCCTX and Gom A in rats. Conditions: Sprague-Dawley, rat, plasma, iv, 300 mg/kg; for AUC(0-t): read-out: AUC0–8h; for MRT last: read-out: MRT0–8h. As to the method:
Rats were randomly divided into five groups (groups 1−5, n = 6), respectively. To determine the short- and long-term effect of single-dose Gom A pretreatment on CYP3A metabolism of CTX, Gom A and CTX were administered to rats with different time intervals in groups 2−5. In brief, rats in group 1 (CTX alone group) were i.g. administered with saline (10 mL/kg, vehicle control), and rats in groups 2−5 were given Gom A (i.g.) at the dose of 20.8 mg/kg (50 μmol/kg). Rats in group 1 were intravenously (i.v.) administered with CTX (300 mg/kg) 0.5 h after saline administration. In groups 2–5, rats were given CTX (i.v.) 0.5, 6, 24 and 72 h after Gom A pretreatment, respectively. Mesna was injected (420 mg/kg, i.v.) 1 hour after CTX administration in all groups to prevent bladder injury in accordance with clinical practice.
Blood samples were collected from the postocular vein at 0.083, 0.25, 0.5, 1, 2, 3, 4, 6, 8, 12 and 24 h after CTX injection. Samples were transferred to heparin tubes and centrifuged at 5000 rpm for 15 min. Plasma was obtained and stored at −20 °C until required for further analysis.
UHPLC-MS/MS method (I): 6OH-Tes concentrations were analyzed according to the previous reports with slight modifications (Supplementary Figure S3). The terminated sample were centrifuged at 14,000 rpm for 10 min, 10 μL of each supernatant was injected into the UHPLC-MS/MS system for analysis. In general, an Agilent Elipse Plus 2.1 × 50 mm column packed with 1.8 µm C18 was applied. The column temperature was set as 30 °C at a flow rate of 0.3 mL/min. The mobile phase was consisted of aqueous 1% formic acid with the addition of 10 mM ammonium acetate solution (A) and methanol (B) with the gradient elution program set as follow: 5–50–80% B from 0–1–4 min. The ion transitions were m/z 305.0→269.0 for 6OH-Tes and m/z 181.0→111.0 for phenacetin (IS-I). UHPLC-MS method (II): DCCTX concentrations were determined using our previously developed UHPLC-MS/MS method (Supplementary Figure S4). For pharmacokinetic study, plasma samples were diluted 30-fold with plasma from drug-free rats. After vortexing for 2 min, 100 μL of each diluted sample was mixed with 400 μL acetonitrile (containing 6 ng/mL TNZ (IS-II), vortexed, and centrifuged at 14,000 rpm for 10 min. 100 μL supernatant of each sample was mixed with 400 μL aqueous solution containing 10% acetonitrile followed by a rough centrifugation. For HLMs inhibition study, samples were vortexed for 1 min after reaction termination, and the mixture was then centrifuged at 14,000 rpm for 10 min. After centrifugation, the obtained supernatant (5 μL) was injected into the UHPLC-MS/MS system, using methanol/10 mM ammonium acetate aqueous solution as the mobile phase at a flow rate of 0.25 mL/min. The ion transitions were set as m/z 199.2→78 for DCCTX and m/z 248.1→121.1 for TNZ (IS-II). UHPLC-MS/MS method (III): Gom A concentrations were determined using slightly modified LC/MS method which developed by our laboratory. Briefly, a 100 µL plasma sample was transferred to a 10 mL centrifuge tube with addition of 20 µL IS solution and 20 µL water/acetonitrile (90:10, v/v), vortexed for 30 s and then extracted using 3 mL methyl tertiary butyl ether. After extraction, the sample was centrifuged at 5000 rpm for 10 min. The organic layer was quantitatively transferred to a 5 mL glass tube and evaporated to dryness at 35 °C. Then the dried extract was reconstituted in 100 µL solvent (water–acetonitrile, 20:80, v/v) followed by injection of 10 µL aliquot into LC-MS/MS system. Separation was performed on a Zorbax SB-C18 reserved-phase column (100 mm × 2.1 mm i.d., 3.5 µm) with the mobile phase consisting of acetonitrile, methanol and water −0.1% formic acid (72:18:10, v/v/v) at a flow rate of 0.3 mL/min. The ion transitions were set as m/z 399→329 for Gom A and m/z 387.0→145.0 for bifendate (IS-III). […]

For series [2] the following is noted: cited from earlier work.
[3] abbreviates: Group 1: CTX 300 mg/kg i.v. alone (saline 0.5 h before).
Where [4] appears, read: Group 2: CTX 300 mg/kg i.v. 0.5 h after Gom A 20.8 mg/kg i.g.
The mark [5] stands for this setting: Group 3: CTX 300 mg/kg i.v. 6 h after Gom A 20.8 mg/kg i.g.
Where [6] appears, read: Group 4: CTX 300 mg/kg i.v. 24 h after Gom A 20.8 mg/kg i.g.
[7] abbreviates: Group 5: CTX 300 mg/kg i.v. 72 h after Gom A 20.8 mg/kg i.g.

Molecules are shown by their SMILES. Read-outs that look alike come from different tables or passages of the source.

By Cmax is commonly meant the maximum level reached in the sampled fluid or tissue. As usually defined, the Tmax is the time at which the peak concentration occurs. By half-life is commonly meant the time needed for the level to fall by half in the phase considered. Low readings indicate fast loss, high ones slow loss. Take `O=P1(NCCCl)NCCCO1` (stereo not drawn) [DCCTX, 2-dechloroethylcyclophosphamide]: in series [1] (setting [3]), the Cmax worked out at 8600 ± 1300 ng/mL, the time to peak (Tmax) is 2 ± 0.1 h, the half-life is 2.2 ± 0.5 h and the AUC(0-t) turned out to be 32500 ± 8400 ng·h/mL. Further, the MRT last in series [1] (setting [3]) turned out to be 3.3 ± 0.2 h. Besides, in series [1] (setting [4]), the concentration peaked (Cmax) at 1900 ± 200 ng/mL, the time to peak (Tmax) is 2.9 ± 0.6 h, the half-life is 3.1 ± 0.9 h and the AUC(0-t) was 8900 ± 300 ng·h/mL. The MRT last in series [1] (setting [4]) was 3.8 ± 0.2 h. Further, in series [1] (setting [5]), the concentration peaked (Cmax) at 2600 ± 500 ng/mL, the time to peak (Tmax) came out at 3.7 ± 0.8 h, the half-life is 3.2 ± 0.8 h and the AUC(0-t) came to 11800 ± 2500 ng·h/mL. For the same compound, the MRT last in series [1] (setting [5]) turned out to be 4.2 ± 0.1 h. Also, in series [1] (setting [6]), the Cmax was 16200 ± 1200 ng/mL, the Tmax came to 2 ± 0.1 h, the half-life is 2 ± 0.4 h and the AUC(0-t) is 65900 ± 12400 ng·h/mL. Further, the MRT last in series [1] (setting [6]) was found to be 3.3 ± 0.2 h. Besides, in series [1] (setting [7]), the peak concentration (Cmax) was 20000 ± 3100 ng/mL, the Tmax was found to be 3.3 ± 0.5 h, the half-life was 3.8 ± 1.2 h and the AUC(0-t) was determined as 79200 ± 19100 ng·h/mL. Also, in series [1] (setting [7]), the MRT last was determined as 3.7 ± 0.2 h.

Turning to `C=CC[C@@H]1/C=C(\C)C[C@H](C)C[C@H](OC)[C@H]2O[C@@](O)(C(=O)C(=O)N3CCCC[C@H]3C(=O)O[C@H](/C(C)=C/[C@@H]3CC[C@@H](O)[C@H](OC)C3)[C@H](C)[C@@H](O)CC1=O)[C@H](C)C[C@@H]2OC` [Tacrolimus], in series [2], the “plasma protein binding” value is given as “strongly bound to plasma protein”.

With `O=P1(N(CCCl)CCCl)NCCCO1` (stereo not drawn) [CTX, cyclophosphamide], the “plasma protein binding rate” value in series [2] is listed as “approximately 9%”.

The values are drawn from publication PMC6152024 (Molecules : A Journal of Synthetic Chemistry and Natural …, 2017).
